According to patent US12312324B2, “Fluorine-containing substituted benzothiophene compound, and pharmaceutical composition and application thereof” (Shanghai Institute of Materia Medica, Chinese Academy of …, priority 2019, dated 2025):
“Also recorded” adds a separate entry of the source.

Assays:
[1] = Pharmacokinetic properties in rats; assay type: in vivo
[2] = molecular target: human-derived interferon gene stimulating protein (Homo sapiens, UniProt Q86WV6, G230A/H232R/R293Q/R71H); assay: THP1-Blue-ISG reporter cell screening for activation of interferon gene stimulating protein and promotion of IFN-β expression; details: 10 μM, THP1-Blue-ISG cells; for Fold change (ratio relative to the control experiment), First experiment / Fold change (ratio relative to the control experiment), Second experiment / Fold change (ratio relative to the control experiment), Average value: 24 hours, OD650; for Fold change (ratio relative to the control experiment), Average value: average of two experiments
Chain of human-derived interferon gene stimulating protein (Q86WV6 whole entry R71H/G230A/H232R/R293Q): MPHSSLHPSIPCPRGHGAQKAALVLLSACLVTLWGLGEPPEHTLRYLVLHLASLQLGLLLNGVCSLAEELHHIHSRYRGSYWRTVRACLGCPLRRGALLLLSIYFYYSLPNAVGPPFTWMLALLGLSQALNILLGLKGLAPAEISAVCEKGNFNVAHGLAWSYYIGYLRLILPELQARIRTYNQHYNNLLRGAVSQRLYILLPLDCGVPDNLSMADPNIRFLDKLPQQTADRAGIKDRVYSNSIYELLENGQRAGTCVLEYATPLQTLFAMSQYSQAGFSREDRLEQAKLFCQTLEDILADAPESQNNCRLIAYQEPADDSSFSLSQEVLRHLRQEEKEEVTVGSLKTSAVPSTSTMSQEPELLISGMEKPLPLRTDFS

[3] = rat, plasma, Intravenous (1 mg/kg)

Structure (SMILES)	Judgement [2]	Fold change (ratio relative to the control experiment), First experiment [2]	Fold change (ratio relative to the control experiment), Second experiment [2]	Fold change (ratio relative to the control experiment), Average value [2]	further results
COc1cc2cc(C(F)(F)CCC(=O)O)sc2cc1OC [Compound S2]	effective (when the Fold change≥2, it is effective)	23.95	25.94	24.95	plasma exposure (AUC) of intravenous injection relative to that of 1a ([1]; intravenous injection, versus compound 1a): about 4.4 times; pharmacokinetic properties (T1/2, Cmax, AUC, MRT) compared with compound 1a (in words) ([1]; oral or intravenous, versus compound 1a): significantly superior; also recorded: significantly better; AUC [1, 3]: 7180 ng·h/mL; MRT [1, 3]: 51.2 min; clearance [1, 3]: 2.33 mL/min/kg; half-life [1, 3]: 40.1 min; AUC ([1]; rat, plasma, Oral (3 mg/kg)): 5820 ng·h/mL; Cmax ([1]; rat, plasma, Oral (3 mg/kg)): 6910 ng/mL; MRT ([1]; rat, plasma, Oral (3 mg/kg)): 69 min; half-life ([1]; rat, plasma, Oral (3 mg/kg)): 44.4 min
COc1cc2cc(C(F)(F)CCC(=O)OC(C)C)sc2cc1OC [Compound S3]	effective (when the Fold change≥2, it is effective)	24.31	33.69	29.00	
COc1cc2cc(C(F)(F)CCC(=O)N(C)O)sc2cc1OC [Compound S6]	effective (when the Fold change≥2, it is effective)	15.82	26.22	21.02	
COc1cc2cc(C(F)(F)CCC(=O)N(O)C(F)F)sc2cc1OC [Compound S7]	effective (when the Fold change≥2, it is effective)	23.95	29.94	26.95	
COc1cc2cc(C(F)(F)CCC(=O)N(O)C(C)C)sc2cc1OC [Compound S10]	effective (when the Fold change≥2, it is effective)	25.41	34.36	29.89	
COc1cc2cc(C(F)(F)CCC(=O)N(O)Cc3ccccc3)sc2cc1OC [Compound S11]	effective (when the Fold change≥2, it is effective)	20.44	30.93	25.69	
COc1cc2cc(C(F)(F)CCC(=O)N(O)C(F)(F)c3ccccc3)sc2cc1OC [Compound S12]	effective (when the Fold change≥2, it is effective)	22.38	31.54	26.96	
COc1cc2cc(C(F)(F)CCC(=O)N(O)C3CC3)sc2cc1OC [Compound S15]	effective (when the Fold change≥2, it is effective)	26.23	35.12	30.68	
COc1cc2cc(C(F)(F)CCC(=O)NOc3ccccc3)sc2cc1OC [Compound S18]	effective (when the Fold change≥2, it is effective)	17.62	28.34	22.98	
COc1cc2sc(C(F)(F)CCC(=O)O)cc2c(F)c1OC [Compound S19]	effective (when the Fold change≥2, it is effective)	25.73	31.81	28.77	
CO/C1=C(\OC)C/C(F)=c2/cc(C(F)(F)CCC(=O)N(O)C(C)C)s/c2=C/C1 [Compound S21]	effective (when the Fold change≥2, it is effective)	27.51	32.63	30.07	
COC1=C(OC)CC=c2cc(C(F)CCCC(=O)N(O)C(C)C)sc2=C1 (stereo not shown) [Compound S24]	effective (when the Fold change≥2, it is effective)	15.53	24.54	20.04	
O=C(O)CCC(F)(F)c1cc2cc3c(cc2s1)OCO3 [Compound S26]	effective (when the Fold change≥2, it is effective)	16.24	25.03	20.62	
COc1cc2sc(C(F)(F)CCC(=O)O)cc2cc1Br [Compound S28]	effective (when the Fold change≥2, it is effective)	23.75	33.73	28.74	
C=Cc1cc2cc(C(F)(F)CCC(=O)O)sc2cc1OC [Compound S29]	effective (when the Fold change≥2, it is effective)	25.26	34.05	29.66	
